Structures are written as SMILES. Values after ≈ are worked out from the molar mass of the structure shown. Where only a bound is given, the exact number is not on record here.

Assay [1] relates to Enterococcus faecalis. The assay can be described thus: Compound was evaluated for inhibition of peptidoglycan synthesis in Enterococcus faecalis using [14C]lysine radioligand. Type of assay: functional, organism-based.
For assay [2], the system named is Enterococcus faecium. The assay can be described thus: Compound was evaluated for its antibacterial activity against Enterococcus faecium RLA1 strain resistant to ampicillin. It counts as functional.
Assay [3] relates to Escherichia coli. Kind of assay: Compound was evaluated for inhibition of peptidoglycan synthesis in Escherichia coli using [14C]-lipid II radioligand. It counts as functional, organism-based.
Assay [4] deals with Enterococcus faecalis. Kind of assay: Compound was evaluated for its antibacterial activity against Enterococcus faecalis ATCC 29212. Type of assay: functional.
The subject of assay [5] is Staphylococcus aureus. The assay can be described thus: Compound was evaluated for bactericidal activity against Staphylococcus aureus. It counts as functional.
For assay [6], the system named is Staphylococcus aureus. The assay can be described thus: Compound was evaluated for its antibacterial activity against Staphylococcus aureus ATCC 29213. Type of assay: functional.
The subject of assay [7] is Escherichia coli. Kind of assay: Compound was evaluated for inhibition of peptidoglycan synthesis in Escherichia coli using UDP-[14C]-GlcNAc radioligand. It counts as functional, organism-based.
The test system of assay [8] is Enterococcus faecalis. Kind of assay: Compound was evaluated for its antibacterial activity against Enterococcus faecalis CL4877 (Van B). Type of assay: functional.
The subject of assay [9] is Staphylococcus epidermidis. Kind of assay: Compound was evaluated for bactericidal activity against Staphylococcus epidermidis. Type of assay: functional.
In assay [10] the test system is Enterococcus faecium. The assay can be described thus: Compound was evaluated for its antibacterial activity against Enterococcus faecium ATCC 49624. Type of assay: functional.
Assay [11] has as its system Enterococcus faecium. Kind of assay: Compound was evaluated for its antibacterial activity against Enterococcus faecium CL4931 (Van A). Type of assay: functional.
Assay [12] deals with Escherichia coli. The assay can be described thus: Compound was evaluated for its antibacterial activity against Escherichia coli BAS849. Type of assay: functional.
Assay [13] deals with Enterococcus faecalis. The assay can be described thus: Compound was evaluated for its antibacterial activity against Enterococcus faecalis CL5244 (Van B). It counts as functional.
For assay [14], the system named is Staphylococcus epidermidis. The assay can be described thus: Compound was evaluated for its antibacterial activity against Staphylococcus epidermidis ATCC 12228. Type of assay: functional.
In assay [15] the test system is Enterococcus faecalis. The assay can be described thus: Compound was evaluated for bactericidal activity against Enterococcus faecalis. It counts as functional. On the set-up: concentration or dose not given beside the values.
The test system of assay [16] is Staphylococcus epidermidis. The assay can be described thus: Compound was evaluated for its antibacterial activity against […] ATCC 12228. Type of assay: functional.
For assay [17], the system named is Staphylococcus epidermidis. Kind of assay: Compound was evaluated for bactericidal activity against […]. It counts as functional.
Assay [18] deals with Enterococcus faecalis. The assay can be described thus: Compound was evaluated for inhibition of peptidoglycan synthesis in Enterococcus faecalis using [14C]lysine radioligand; not applicable. It counts as functional, organism-based.

On to `CC(=O)N[C@@H]1[C@H](O[C@H]2[C@@H](O)[C@H](NC(C)=O)[C@H](OC3[C@@H](OP(=O)(O)OC[C@@H](OCCC(C)CCCCC(C)(C)CCC(C)CCC(C)CCCC(C)C)C(=O)O)O[C@@H](C(N)=O)[C@@](C)(O)[C@@H]3OC(N)=O)O[C@H]2CO[C@@H]2O[C@@H](CO)[C@@H](O)[C@H](O)[C@@H]2O)O[C@@H](C)[C@@H](O[C@@H]2O[C@@H](C(=O)NC3=C(O)CCC3=O)[C@H](O)[C@H](O)[C@@H]2O)[C@@H]1O` (stereo partly specified), for which the IC50 (commonly the midpoint of a concentration-inhibition curve) was more than 700000 nM in the assay with Enterococcus faecalis [1], 98 nM with Escherichia coli [3] and 8.1 nM in the assay on Escherichia coli [7]. The MIC (usually the lowest concentration that inhibits growth of the organism) against Enterococcus faecium [2] was 0.25 µg/mL (≈ 0.157 µM); against Enterococcus faecalis [4], 0.08 µg/mL (≈ 0.0502 µM); in the assay on Staphylococcus aureus [6] it was 0.16 µg/mL (≈ 0.1 µM); against Enterococcus faecalis [8] it was 0.25 µg/mL (≈ 0.157 µM); against Enterococcus faecium [10], more than 25 µg/mL; against Enterococcus faecium [11] it was 0.78 µg/mL (≈ 0.49 µM). Besides, the MIC against Escherichia coli [12] is 0.31 µg/mL (≈ 0.195 µM); with Enterococcus faecalis [13] it was 0.25 µg/mL (≈ 0.157 µM); in [14] it was 0.31 µg/mL (≈ 0.195 µM). In addition, the Survival is given as 62% in the assay with Staphylococcus aureus [5], 0.33% in assay [9] and 141% in the assay with Enterococcus faecalis [15].
With `CC(=O)N[C@@H]1[C@H](O[C@H]2[C@@H](O)[C@H](NC(C)=O)[C@H](O[C@@H]3[C@@H](OP(=O)(O)OC[C@@H](OCCC(C)CCCCC(C)(C)CCC(C)CCC(C)CCCC(C)C)C(=O)O)O[C@@H](C(N)=O)[C@@](C)(O)[C@@H]3OC(N)=O)O[C@H]2CO[C@@H]2O[C@@H](CO)[C@@H](O)[C@H](O)[C@@H]2O)O[C@@H](C)[C@@H](O[C@@H]2O[C@@H](C(N)=O)[C@H](O)[C@H](O)[C@@H]2O)[C@@H]1O` (stereo partly specified), the IC50 in the assay with Enterococcus faecalis [1] is more than 700000 nM; with Escherichia coli [3], 87 nM; with Escherichia coli [7], 8.6 nM. Moreover, the MIC in assay [16] was 0.16 µg/mL (≈ 0.107 µM); in the assay on Enterococcus faecium [2], 0.25 µg/mL (≈ 0.167 µM); against Enterococcus faecalis [4], 0.16 µg/mL (≈ 0.107 µM); in the assay with Staphylococcus aureus [6], 0.08 µg/mL (≈ 0.0535 µM); against Enterococcus faecalis [8], 0.25 µg/mL (≈ 0.167 µM); in the assay with Enterococcus faecium [10], more than 25 µg/mL. The MIC against Enterococcus faecium [11] amounted to 0.39 µg/mL (≈ 0.261 µM); in the assay with Escherichia coli [12] it was 0.08 µg/mL (≈ 0.0535 µM); in the assay on Enterococcus faecalis [13] it was 0.25 µg/mL (≈ 0.167 µM). For the same molecule, the Survival with Staphylococcus aureus [5] is 61%; in assay [9], 0.4%; in the assay with Enterococcus faecalis [15], 176%.
In the case of `CCCCCCCCCCCCO[C@H](COP(=O)(O)OC1OC(C(N)=O)C(O)C(NC(=O)Nc2ccc(Cl)c(C(F)(F)F)c2)C1OC1OC(CO)C(O)C(O)C1NC(=O)c1cccc(C(F)(F)F)c1)C(=O)O` (stereo partly specified), the half-maximal inhibitory concentration (IC50) stood at 2500 nM in the assay on Enterococcus faecalis [1], 100000 nM in the assay on Escherichia coli [3] and 9800 nM in the assay with Escherichia coli [7]. Besides, the minimal inhibitory concentration (MIC) came out at 6.25 µg/mL (≈ 5.77 µM) in [16]; 6.25 µg/mL (≈ 5.77 µM) with Enterococcus faecium [2]; 6.25 µg/mL (≈ 5.77 µM) with Enterococcus faecalis [4]; 6.25 µg/mL (≈ 5.77 µM) with Staphylococcus aureus [6]; 3.13 µg/mL (≈ 2.89 µM) in the assay with Enterococcus faecalis [8]; 6.25 µg/mL (≈ 5.77 µM) in the assay on Enterococcus faecium [10]. For the same molecule, the minimum inhibitory concentration (MIC) came out at 6.25 µg/mL (≈ 5.77 µM) in the assay on Enterococcus faecium [11], 12.5 µg/mL (≈ 11.5 µM) in the assay on Escherichia coli [12] and 3.13 µg/mL (≈ 2.89 µM) in the assay on Enterococcus faecalis [13]. Also, the Survival in assay [17] is given as less than 5e-05%; in the assay with Staphylococcus aureus [5], less than 5e-05%; with Enterococcus faecalis [15], 0.00024%.
For the molecule `CC(=O)NC1C(OC2C(CO)OC(OC3C(OP(=O)(O)OC[C@@H](OCCC(C)CCCCC(C)(C)CCC(C)CCC(C)CCCC(C)C)C(=O)O)OC(C(N)=O)C(C)(O)C3OC(N)=O)C(NC(C)=O)C2O)OC(C)C(O)C1O` (stereo partly specified), the figures for the IC50 with Enterococcus faecalis [1], in the assay with Escherichia coli [3] and in the assay with Escherichia coli [7] were 50400 nM, 131 nM and 16 nM, respectively. Further, the MIC in assay [16] worked out at 0.53 µg/mL (≈ 0.457 µM); in the assay with Enterococcus faecium [2], 1.56 µg/mL (≈ 1.35 µM); against Enterococcus faecalis [4] it was 0.78 µg/mL (≈ 0.673 µM); in the assay with Staphylococcus aureus [6], 0.63 µg/mL (≈ 0.543 µM); with Enterococcus faecalis [8], 1.56 µg/mL (≈ 1.35 µM); against Enterococcus faecium [10], 25 µg/mL (≈ 21.6 µM). Further, the MIC in the assay on Enterococcus faecium [11] came to 1.56 µg/mL (≈ 1.35 µM); with Escherichia coli [12], 0.31 µg/mL (≈ 0.267 µM); in the assay with Enterococcus faecalis [13], 1.56 µg/mL (≈ 1.35 µM). In addition, the Survival was determined as 0.035% in the assay on Staphylococcus aureus [5], 0.022% in [9] and 147% in the assay with Enterococcus faecalis [15].
On to `CC(=O)NC1C(OC2C(OP(=O)(O)OC[C@@H](OCCC(C)CCCCC(C)(C)CCC(C)CCC(C)CCCC(C)C)C(=O)O)OC(C(N)=O)C(C)(O)C2OC(N)=O)OC(CO)C(O)C1O` (stereo partly specified), for which the half-inhibitory concentration (IC50) with Escherichia coli [3] is 241 nM; in the assay on Escherichia coli [7] it was 33 nM; in the assay on Enterococcus faecalis [18] it was “Not Active”. Besides, the MIC in the assay on Enterococcus faecalis [4], with Staphylococcus aureus [6], in the assay with Enterococcus faecalis [8], in the assay with Enterococcus faecium [10], with Enterococcus faecium [11] and against Escherichia coli [12] was more than 100 µg/mL in each case. The MIC (against Enterococcus faecalis [13]; in assay [14]) was more than 100 µg/mL in each case.
In the case of `C=C(C/C=C(\C)CCC=C(C)C)CCC(C)(C)/C=C/CC/C(C)=C\CO[C@H](COP(=O)(O)O[C@H]1O[C@@H](C(N)=O)[C@@](C)(O)[C@H](OC(N)=O)[C@@H]1O[C@@H]1O[C@@H](CO[C@@H]2O[C@@H](CO)[C@@H](O)[C@H](O)[C@@H]2O)[C@@H](O[C@@H]2O[C@@H](C)[C@@H](O[C@@H]3O[C@@H](C(=O)NC4=C(O)CCC4=O)[C@H](O)[C@H](O)[C@@H]3O)[C@H](O)[C@@H]2NC(C)=O)[C@@H](O)[C@@H]1NC(C)=O)C(=O)O` [MOENOMYCIN], the IC50 in the assay on Enterococcus faecalis [1] is more than 700000 nM; in the assay with Escherichia coli [3], 31 nM; in the assay on Escherichia coli [7], 15.6 nM. Moreover, the MIC in [16] is 0.025 µg/mL (≈ 0.0158 µM); in the assay on Enterococcus faecium [2] it was 0.78 µg/mL (≈ 0.493 µM); against Enterococcus faecalis [4] it was 0.078 µg/mL (≈ 0.0493 µM); with Staphylococcus aureus [6], 0.05 µg/mL (≈ 0.0316 µM); against Enterococcus faecalis [8], 0.13 µg/mL (≈ 0.0821 µM); against Enterococcus faecium [10], more than 200 µg/mL. The MIC came to 0.25 µg/mL (≈ 0.158 µM) in the assay with Enterococcus faecium [11], 0.025 µg/mL (≈ 0.0158 µM) against Escherichia coli [12] and 0.06 µg/mL (≈ 0.0379 µM) with Enterococcus faecalis [13]. Besides, the Survival with Staphylococcus aureus [5] came out at 125%; in assay [9] it was 0.48%; in the assay with Enterococcus faecalis [15], 143%.
For `CN[C@H](CC(C)C)C(=O)N[C@H]1C(=O)N[C@@H](CC(N)=O)C(=O)N[C@H]2C(=O)N[C@H]3C(=O)N[C@H](C(=O)N[C@H](C(=O)O)c4cc(O)cc(O)c4-c4cc3ccc4O)[C@H](O)c3ccc(c(Cl)c3)Oc3cc2cc(c3O[C@@H]2O[C@H](CO)[C@@H](O)[C@H](O)[C@H]2O[C@H]2C[C@](C)(N)[C@H](O)[C@H](C)O2)Oc2ccc(cc2Cl)[C@H]1O` [VANCOMYCIN], the IC50 came out at 2600 nM in the assay with Enterococcus faecalis [1], 4500 nM in the assay on Escherichia coli [3] and 3700 nM with Escherichia coli [7]. Moreover, the MIC against Enterococcus faecium [2] was 0.78 µg/mL (≈ 0.538 µM); in the assay on Enterococcus faecalis [4], 3.12 µg/mL (≈ 2.15 µM); against Enterococcus faecalis [8] it was 1250 µg/mL (≈ 863 µM); in the assay on Enterococcus faecium [10], 0.39 µg/mL (≈ 0.269 µM); in the assay with Enterococcus faecium [11], more than 1250 µg/mL; against Escherichia coli [12], 0.78 µg/mL (≈ 0.538 µM). Also, in the assay with Enterococcus faecalis [13], the minimum inhibitory concentration (MIC) was determined as 25 µg/mL (≈ 17.3 µM).

These data come from ChEMBL document CHEMBL1132768, “Differential antibacterial activity of moenomycin analogues on gram-positive bacteria” (Bioorg Med Chem Lett, 2000).
